In patent US6358998B1, “Body fat-reducing agent comprising dioxabicyclo[3.3.0] octane derivative as active ingredient” (Rinoru Oil Mills Co., LTD, priority 1999, dated 2002):

What was measured:
fat tissues of rats = assay: Example 1: four-week feeding of experimental diet to rats, organ and fat tissue weights; type: in vivo, rat; conditions: Sprague-Dawley male rats, four weeks of feeding, compared with the control group
Source text: Sprague-Dawley male rats of four weeks of age were acclimatized, and then divided into three groups (each group consisting of 8 rats), a 1.0% linoleic acid group (a control group), 0.2% sesamin group, and 0.2% sesamin+1.0% CLA group. The experimental diet shown in Table 1 and water were then freely fed to these three groups of rats. […] Four weeks after the initiation of feeding, the 8 rats constituting each group were scarified, and the organs were taken out.

perfused liver = assay: Example 2: liver perfusion experiment, triglyceride secretion; type: in vivo, rat; conditions: Sprague-Dawley male rats, three weeks of feeding, compared with the control group
Source text: Sprague-Dawley male rats of four weeks of age were acclimatized for 5 to 11 days, and then divided into three groups (each group consisting of 5 rats), a 1.0% linoleic acid group (a control group), 0.2% sesamin group, and 0.2% sesamin+1.0% CLA group. In the experiment, CE-2 (lipid content 4.5%) manufactured by CLEA JAPAN INC. with 1.5% of a soybean oil being added thereto was used as a basic diet, and the experimental diet was freely fed to the rats. […] Three weeks after the initiation of feeding, a liver perfusion experiment was carried out.

c1cc2c(cc1[C@H]1OC[C@H]3[C@@H]1CO[C@@H]3c1ccc3c(c1)OCO3)OCO2 [Sesamin, sesamin]
reduced: weight of fat tissues around epididymis (fat tissues of rats) | weight of fat tissues around kidney (fat tissues of rats) | amount of triglyceride secreted from the perfused liver (perfused liver)
